Measured values from article PMC6154694, “Absorption, Metabolic Stability, and Pharmacokinetics of Ginger Phytochemicals” (Molecules : A Journal of Synthetic Chemistry and Natural …, 2017).

Key:
[1] = Liver microsomal stability, mouse; assay type: in vitro ADME, CD1 mouse; settings: protein 0.5 mg/mL
Method: Pooled liver microsomes from CD1 mouse, IGS Sprague-Dawley rat, Beagle dog, and mixed gender human were used for assays. Incubations (1 mL) consisted of liver microsomes (0.5 mg/mL), NADPH (1 mM) and 100 mM sodium phosphate buffer (pH 7.4). Following pre-incubation (10 min, 37 °C), reactions were initiated by spiking ACN/DMSO (80:20) stock solutions of GE phenolics (5 μL, 10 μM). Samples (100 μL) were withdrawn at 0, 5, 10, 15, 20 and 30 min and quenched with 200 μL acetonitrile containing internal standard. Concomitant NADPH-free control incubations were prepared similarly.

[2] = Mouse pharmacokinetic study of oral GE with and without ketoconazole, plasma with and without β-glucuronidase treatment; assay type: in vivo, male mice (C57BL6J); settings: for Concentration Ratio (Total/Free) of GE Phenolics: GE administered group; for Concentration Ratio (Total/Free) of GE Phenolics / concentration at 0 h / concentration at 0.087 h / concentration at 0.167 h / concentration at 0.25 h / concentration at 0.5 h / concentration at 1 h / concentration at 2 h / concentration at 3 h / concentration at 4 h / concentration at 6 h / concentration at 8 h / concentration at 12 h: mouse plasma; for AUC(0-t) / Cmax / Tmax / concentration at 0 h / concentration at 0.087 h / concentration at 0.167 h / concentration at 0.25 h / concentration at 0.5 h / concentration at 1 h / concentration at 2 h / concentration at 3 h / concentration at 4 h / concentration at 6 h / concentration at 8 h / concentration at 12 h: male, C57BL6J; for AUC(0-t) / Cmax / Tmax: mouse, plasma, po, 250 mg/kg
Method: A solution formulation of GE was prepared by using 5% ethanol, 5% Tween 80, 40% polyethylene glycol, and 50% corn oil. The dose volume was 10 mL/kg and the dose administered was 250 mg/kg GE.
Pharmacokinetic study in male mice (C57BL6J, Harlan Laboratories, Indianapolis, IN, USA) was run with 36 animals in each group at a GE dose of 250 mg/kg with a dose volume of 10 mL/kg. One group was given GE alone and in the second group GE was co-administered with KTZ (50 mg/kg). A terminal sampling design was used to collect blood samples at 0 (pre-dose), 0.08, 0.16, 0.25, 0.5, 1, 2, 3, 4, 6, 8, and 12 h. At each time, 1 mL of blood was collected in ethylenediaminetetraacetic acid di-potassium salt (K2EDTA) tubes (BD Biosciences, Franklin Lakes, NJ, USA). Plasma was separated by centrifugation of samples at 4000 rpm for 10 min and stored below −60 °C till bioanalysis. All experiments were performed with approval from the Institutional Animal Care and Use Committee (IACUC, approval code: A14031). All animals were acclimatized for five days before dosing in the experimental area. Food and water was provided ad libitum throughout the study period. Animals were marked and housed (three per cage, n = 36 per group) in polypropylene cages and maintained in controlled environmental conditions with 12 h light and dark cycles. The temperature and humidity of the room was maintained between 22 ± 3 °C and 30% to 50%, respectively, and approximately 10–12 fresh air change cycles per hour.
To confirm the presence of GE glucuronide conjugates, plasma (100 μL) was treated with βgd (20 μL, 500 units) and incubated at 37 °C for 1 h. Each sample was analyzed twice with and without β-gd treatment. Samples without gde treatment were diluted with 20 μL of buffer. Total (conjugated + free) and free ginger phenolics data were reported following bioanalysis.
All in vitro and in vivo samples were processed by protein precipitation method. An aliquot (100 μL) of the sample was spiked with 200 μL of acetonitrile containing dihydrocapsaicin as internal standard (IS) and vortex mixed for 3 min. The tubes were centrifuged at 12,000 rpm for 10 min and an aliquot of supernatant was transferred into autosampler vials for analysis. The stock solutions of 6G, 8G, 10G, and 6S were prepared in ACN/water (70:30) at 1 mg/mL. A calibration curve (CC) range of 2–2000 ng/mL was employed for the quantification of analytes and IS concentration was 150 ng/mL for each analysis. The CC consisted of blank, blank with IS and seven non-zero calibration standards. The calibration standards were within ±15% of the nominal concentration and lower limit of quantification was within ±20% of nominal. All samples were analyzed using liquid chromatography tandem mass spectrometry (LC-MS/MS) method (Agilent 6410 series, Santa Clara, CA, USA). A positive ionization mode with multiple reaction monitoring (MRM, m/z Q1/Q3) of 6G (m/z 277.1/177.1, retention time (RT) 2.0 min), 8G (m/z 305.1/177.1, RT 4.0 min), 10G (m/z 333.1/177.1, RT 7.7 min), 6S (m/z 277.1/137.1, RT 5.1 min), and IS (m/z 308.2/137.1, RT 3.4 min) was employed. The ion spray voltage was set at 3500 V, ionization temperature was set to 300 °C and drying gas flow rate was 10 L/min. Data acquisition and quantitation were performed using Mass Hunter software (Agilent Technologies, Wilmington, DE, USA). Separation was achieved using HP1100 series LC (Agilent Technologies) with an Agilent Zorbax reversed-phase (SB-C18, 2.1 × 50 mm, 5.0 μm) column. A gradient method was employed to separate the individual GE phenolics using mobile phase A (0.1% formic acid in water) and mobile phase B (Acetonitrile). The gradient elution method with 50% B at 0 min, 90% B at 5 min, held for 2.1 min, back to 50% B at 7.1 min with a flow rate of 0.2 mL/min. An injection volume of 2 μL was used for analysis. […]

[3] = 250 mg/kg GE + 50 mg/kg KTZ oral, +KTZ −βgd

In the case of `CCCCCCCCCC(O)CC(=O)CCc1ccc(O)c(OC)c1` (centres unmarked) [10G, 10-gingerol], the remaining at 0.5 h, 10 µM ([1]; CD1, pooled liver microsomes, pH 7.4, substrate 10 µM, n = 2, read-out: % Remaining at 30 min) is reported as 10%, the “Intrinsic Clearance” value ([1]; mouse liver microsomes, substrate 10 µM, 45 mg protein/g liver) is reported as 8.0 mL/min/g Liver and the “AUClast Ratio” value ([2]; +KTZ +βgd, reference GE group co-administered with KTZ untreated with βgd) is reported as 11. The “AUClast Ratio” value ([2]; +KTZ +βgd, reference GE group untreated with βgd) was 32, the “AUClast Ratio” value ([2]; +KTZ −βgd, reference GE group untreated with βgd) was 3 and the “Concentration Ratio (Total/Free) of GE Phenolics” value (shortened to “Concentration Ratio (Total/Free)”) ([2]; 0 h) was 0. The “Concentration Ratio (Total/Free)” value ([2]; 0.087 h) was 5, the “Concentration Ratio (Total/Free)” value ([2]; 0.167 h) was 11 and the “Concentration Ratio (Total/Free)” value ([2]; 0.25 h) was 24. The “Concentration Ratio (Total/Free)” value ([2]; 0.5 h) was 13, the “Concentration Ratio (Total/Free)” value ([2]; 1 h) was 8 and the “Concentration Ratio (Total/Free)” value ([2]; 2 h) was 19. For the same compound, the “Concentration Ratio (Total/Free)” value ([2]; 3 h) was 9, the “Concentration Ratio (Total/Free)” value ([2]; 4 h) was 9 and the “Concentration Ratio (Total/Free)” value ([2]; 6 h) was 15. The “Concentration Ratio (Total/Free)” value ([2]; 8 h) was 0, the “Concentration Ratio (Total/Free)” value ([2]; 12 h) was 0 and the AUC(0-t) ([2]; 250 mg/kg GE oral, −βgd) was 61.8 ng·h/mL. It also gave a Cmax ([2]; 250 mg/kg GE oral, −βgd) of 56 ng/mL, a Tmax ([2]; 250 mg/kg GE oral, −βgd) of 30 min and an AUC(0-t) [2, 3] of 174 ng·h/mL. For the same compound, the Cmax [2, 3] was 79 ng/mL, the Tmax [2, 3] was 30 min and the concentration at 0 h ([2]; 250 mg/kg GE oral, 0 h, −βgd) was 0 ng/mL. For the same compound, the concentration at 0.087 h ([2]; 250 mg/kg GE oral, 0.087 h, −βgd) was 43.1 ± 35.3 ng/mL, the concentration at 0.167 h ([2]; 250 mg/kg GE oral, 0.167 h, −βgd) was 20.7 ± 6.15 ng/mL and the concentration at 0.25 h ([2]; 250 mg/kg GE oral, 0.25 h, −βgd) was 25.9 ± 4.43 ng/mL. For the same compound, the concentration at 0.5 h ([2]; 250 mg/kg GE oral, 0.5 h, −βgd) was 56 ± 31.6 ng/mL, the concentration at 1 h ([2]; 250 mg/kg GE oral, 1 h, −βgd) was 2.21 ± 0.62 ng/mL and the concentration at 2 h ([2]; 250 mg/kg GE oral, 2 h, −βgd) was 4.08 ± 1.61 ng/mL. For the same compound, the concentration at 3 h ([2]; 250 mg/kg GE oral, 3 h, −βgd) was 5.25 ± 1.06 ng/mL, the concentration at 4 h ([2]; 250 mg/kg GE oral, 4 h, −βgd) was 3.06 ± 1.19 ng/mL and the concentration at 6 h ([2]; 250 mg/kg GE oral, 6 h, −βgd) was 2.43 ± 1.16 ng/mL. For the same compound, the concentration at 8 h ([2]; 250 mg/kg GE oral, 8 h, −βgd) was 5.04 ± 5.89 ng/mL, the concentration at 12 h ([2]; 250 mg/kg GE oral, 12 h, −βgd) was 0.62 ± 0.72 ng/mL and the concentration at 0 h ([2]; 250 mg/kg GE with 50 mg/kg ketoconazole oral, 0 h, −βgd) was 0 ng/mL. It also gave a concentration at 0.087 h ([2]; 250 mg/kg GE with 50 mg/kg ketoconazole oral, 0.087 h, −βgd) of 0 ng/mL, a concentration at 0.167 h ([2]; 250 mg/kg GE with 50 mg/kg ketoconazole oral, 0.167 h, −βgd) of 5.66 ± 5.12 ng/mL and a concentration at 0.25 h ([2]; 250 mg/kg GE with 50 mg/kg ketoconazole oral, 0.25 h, −βgd) of 20.5 ± 21.6 ng/mL. For the same compound, the concentration at 0.5 h ([2]; 250 mg/kg GE with 50 mg/kg ketoconazole oral, 0.5 h, −βgd) was 14000 ng/mL, the concentration at 1 h ([2]; 250 mg/kg GE with 50 mg/kg ketoconazole oral, 1 h, −βgd) was 54.5 ± 58.3 ng/mL and the concentration at 2 h ([2]; 250 mg/kg GE with 50 mg/kg ketoconazole oral, 2 h, −βgd) was 27900 ng/mL. The concentration at 3 h ([2]; 250 mg/kg GE with 50 mg/kg ketoconazole oral, 3 h, −βgd) was 45.8 ± 48.2 ng/mL, the concentration at 4 h ([2]; 250 mg/kg GE with 50 mg/kg ketoconazole oral, 4 h, −βgd) was 6.52 ± 1.14 ng/mL and the concentration at 6 h ([2]; 250 mg/kg GE with 50 mg/kg ketoconazole oral, 6 h, −βgd) was 8.07 ± 5.96 ng/mL. For the same compound, the concentration at 8 h ([2]; 250 mg/kg GE with 50 mg/kg ketoconazole oral, 8 h, −βgd) was 3.71 ± 2.46 ng/mL and the concentration at 12 h ([2]; 250 mg/kg GE with 50 mg/kg ketoconazole oral, 12 h, −βgd) was 2.61 ± 1.41 ng/mL.
